Data taken from PubChem BioAssay AID330 (DTP/NCI, 2004).
Where “and” joins values, the source holds several entries; their conditions need not be identical. Equal values may be shown once. Toxic doses and inconclusive results are not listed.

Tested on: P388 leukemia ip, CD2F1 mice, survival T/C
Test: NCI In Vivo Anticancer Drug Screen. Data for tumor model P388 Leukemia (intraperitoneal) in CD2F1 (CDF1) mice
Settings: endpoint: median survival time, higher = longer survival
Summary of the method: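 Mice carrying the transplanted tumor received test compound or vehicle. Survival was recorded in each group, and the value is the treated-group measurement divided by that of the vehicle-treated control group.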

[1] = dose: 7.5 mg/kg/injection, schedule: Q01DX005 (ip), vehicle: saline with Tween-80
[2] = dose: 15.0 mg/kg/injection, schedule: Q01DX005 (ip), vehicle: saline with Tween-80
[3] = dose: 30.0 mg/kg/injection, schedule: Q01DX005 (ip), vehicle: saline with Tween-80
[4] = dose: 60.0 mg/kg/injection, schedule: Q01DX005 (ip), vehicle: saline with Tween-80
[5] = dose: 50.0 mg/kg/injection, schedule: Q01DX005 (ip), vehicle: saline with Tween-80
[6] = dose: 100.0 mg/kg/injection, schedule: Q01DX005 (ip), vehicle: saline with Tween-80
[7] = dose: 200.0 mg/kg/injection, schedule: Q01DX005 (ip), vehicle: saline with Tween-80
[8] = dose: 50.0 mg/kg/injection, schedule: Q01DX009 (ip), vehicle: saline with Tween-80
[9] = dose: 100.0 mg/kg/injection, schedule: Q01DX009 (ip), vehicle: saline with Tween-80
[10] = dose: 100.0 mg/kg/injection, schedule: Q04DX003 (ip), vehicle: saline with Tween-80
[11] = dose: 200.0 mg/kg/injection, schedule: Q01DX009 (ip), vehicle: saline with Tween-80
[12] = dose: 200.0 mg/kg/injection, schedule: Q04DX003 (ip), vehicle: saline with Tween-80
[13] = dose: 120.0 mg/kg/injection, schedule: Q01DX005 (ip), vehicle: saline with Tween-80
[14] = dose: 240.0 mg/kg/injection, schedule: Q01DX005 (ip), vehicle: saline with Tween-80

COc1cccc(Sc2ccc([N+](=O)[O-])c3no[n+]([O-])c23)c1
T/C (dose: 0.93 mg/kg/injection, schedule: Q01DX005 (ip), vehicle: saline with Tween-80): 100 % of control | T/C (dose: 0.93 mg/kg/injection, schedule: Q01DX009 (ip), vehicle: saline with Tween-80): 157 % of control | T/C (dose: 1.56 mg/kg/injection, schedule: Q01DX005 (ip), vehicle: saline with Tween-80): 100 % of control and 97 % of control | T/C (dose: 1.87 mg/kg/injection, schedule: Q01DX005 (ip), vehicle: saline with Tween-80): 99 % of control | T/C (dose: 1.87 mg/kg/injection, schedule: Q01DX009 (ip), vehicle: saline with Tween-80): 163 % of control | T/C (dose: 3.12 mg/kg/injection, schedule: Q01DX005 (ip), vehicle: saline with Tween-80): 100 % of control and 102 % of control | T/C (dose: 3.75 mg/kg/injection, schedule: Q01DX005 (ip), vehicle: saline with Tween-80): 99 % of control | T/C (dose: 3.75 mg/kg/injection, schedule: Q01DX009 (ip), vehicle: saline with Tween-80): 99 % of control | T/C (dose: 6.25 mg/kg/injection, schedule: Q01DX005 (ip), vehicle: saline with Tween-80): 100 % of control and 106 % of control | T/C [1]: 102 % of control | T/C (dose: 12.5 mg/kg/injection, schedule: Q01DX005 (ip), vehicle: saline with Tween-80): 102 % of control and 106 % of control | T/C [2]: 106 % of control | T/C (dose: 15.0 mg/kg/injection, schedule: Q01DX009 (ip), vehicle: Klucel (hydroxypropylcellulose) (HPC)): 184 % of control | T/C (dose: 15.0 mg/kg/injection, schedule: Q01DX009 (ip), vehicle: saline with Tween-80): 107 % of control | T/C (dose: 25.0 mg/kg/injection, schedule: Q01DX005 (ip), vehicle: saline with Tween-80): 108 % of control and 111 % of control | T/C [3]: 109 % of control | T/C (dose: 30.0 mg/kg/injection, schedule: Q01DX009 (ip), vehicle: Klucel (hydroxypropylcellulose) (HPC)): 166 % of control | T/C [4]: 110 % of control | T/C (dose: 60.0 mg/kg/injection, schedule: Q01DX009 (ip), vehicle: Klucel (hydroxypropylcellulose) (HPC)): 88 % of control

COc1ccc(C=NC(C)(C)CO)cc1OC
T/C (dose: 25.0 mg/kg/injection, schedule: Q01DX005 (ip), vehicle: Klucel (hydroxypropylcellulose) (HPC)): 100 % of control | T/C (dose: 50.0 mg/kg/injection, schedule: Q01DX005 (ip), vehicle: Klucel (hydroxypropylcellulose) (HPC)): 109 % of control | T/C (dose: 100.0 mg/kg/injection, schedule: Q01DX005 (ip), vehicle: Klucel (hydroxypropylcellulose) (HPC)): 101 % of control | T/C (dose: 200.0 mg/kg/injection, schedule: Q01DX005 (ip), vehicle: Klucel (hydroxypropylcellulose) (HPC)): 100 % of control

S=P(C1CCCCC1)(C1CCCCC1)C(c1cccnc1)N1CCCC1 (centres undefined)
T/C (dose: 50.0 mg/kg/injection, schedule: Q01DX009 (ip), vehicle: saline): 104 % of control | T/C (dose: 100.0 mg/kg/injection, schedule: Q01DX009 (ip), vehicle: saline): 94 % of control | T/C (dose: 200.0 mg/kg/injection, schedule: Q01DX009 (ip), vehicle: saline): 87 % of control

COCCOCCOCCOCCn1cc(F)c(=O)[nH]c1=O
T/C (dose: 50.0 mg/kg/injection, schedule: Q04DX002 (ip), vehicle: saline): 104 % of control | T/C (dose: 100.0 mg/kg/injection, schedule: Q04DX002 (ip), vehicle: saline): 94 % of control | T/C (dose: 200.0 mg/kg/injection, schedule: Q04DX002 (ip), vehicle: saline): 100 % of control | T/C (dose: 400.0 mg/kg/injection, schedule: Q04DX002 (ip), vehicle: saline): 94 % of control

CCCN1C(=O)CC(NC(C)=O)C1=O (centres undefined)
T/C [5]: 107 % of control | T/C [6]: 107 % of control | T/C [7]: 107 % of control

CCCCCCCC(O)CCCCCCC
T/C (dose: 100.0 mg/kg/injection, schedule: Q04DX003 (ip), vehicle: other): 100 % of control | T/C (dose: 200.0 mg/kg/injection, schedule: Q04DX003 (ip), vehicle: other): 100 % of control | T/C (dose: 400.0 mg/kg/injection, schedule: Q04DX003 (ip), vehicle: other): 109 % of control

Cc1ccc(-c2cn3ccsc3n2)cc1
T/C (dose: 100.0 mg/kg/injection, schedule: Q01DX001 (ip), vehicle: Klucel (hydroxypropylcellulose) (HPC)): 95 % of control | T/C (dose: 200.0 mg/kg/injection, schedule: Q01DX001 (ip), vehicle: Klucel (hydroxypropylcellulose) (HPC)): 97 % of control

Cc1cc2c(cc1C)NC1=C(N2)OC(c2ccc(C3OC4=C(Nc5cc(C)c(C)cc5N4)C3=O)cc2)C1=O (centres undefined)
T/C (dose: 60.0 mg/kg/injection, schedule: Q01DX005 (ip), vehicle: Klucel (hydroxypropylcellulose) (HPC)): 92 % of control | T/C (dose: 120.0 mg/kg/injection, schedule: Q01DX005 (ip), vehicle: Klucel (hydroxypropylcellulose) (HPC)): 92 % of control | T/C (dose: 240.0 mg/kg/injection, schedule: Q01DX005 (ip), vehicle: Klucel (hydroxypropylcellulose) (HPC)): 93 % of control

CC(=O)Oc1ccc(C(O)CN(C)OC(C)=O)cc1OC(C)=O (centres undefined)
T/C (dose: 12.5 mg/kg/injection, schedule: Q01DX005 (ip), vehicle: Klucel + Tween-80): 100 % of control | T/C (dose: 25.0 mg/kg/injection, schedule: Q01DX005 (ip), vehicle: Klucel + Tween-80): 101 % of control | T/C (dose: 50.0 mg/kg/injection, schedule: Q01DX005 (ip), vehicle: Klucel + Tween-80): 101 % of control and 92 % of control

CCOC(=O)OCC(=O)[C@@]1(O)CC[C@H]2[C@@H]3CCC4=CC(=O)CC[C@]4(C)[C@H]3[C@@H](O)C[C@@]21C
T/C [8]: 104 % of control | T/C (dose: 50.0 mg/kg/injection, schedule: Q04DX003 (ip), vehicle: saline with Tween-80): 100 % of control | T/C [9]: 100 % of control | T/C [10]: 100 % of control | T/C [11]: 90 % of control | T/C [12]: 100 % of control

COc1cc(/C=C/C(=O)Sc2ccccc2)cc(OC)c1O
T/C [4]: 109 % of control | T/C [13]: 105 % of control | T/C [14]: 100 % of control

Cc1cc(N)n2c(nc3ccccc32)c1C#N
T/C [2]: 102 % of control | T/C [3]: 100 % of control | T/C [4]: 93 % of control and 97 % of control

COc1ccc(/C=C/Cc2cc3c(cc2O)OCO3)cc1
T/C [4]: 104 % of control | T/C [13]: 101 % of control | T/C [14]: 101 % of control

COC(=O)c1nc(N)nc(C(=O)OC)c1C(=O)/C=C/c1ccccc1
T/C [4]: 100 % of control | T/C [13]: 98 % of control

COc1ccc(CN2CCCN(Cc3ccc(OC)cc3)C2c2cc3ccccc3c3ccccc23)cc1
T/C [5]: 99 % of control | T/C [6]: 99 % of control | T/C [7]: 101 % of control

CCc1nc(N)nc(N)c1-c1ccc(N2CCCCC2)cc1
T/C [1]: 112 % of control | T/C [2]: 100 % of control | T/C [3]: 99 % of control

COc1cc(N=Nc2ccccc2)cc(/C=N\NC(=S)Nc2cccc(C)c2)c1O
T/C [5]: 87 % of control

CCC(C)C1CCCCC1 (centres undefined)
T/C (dose: 100.0 mg/kg/injection, schedule: Q01DX009 (ip), vehicle: Klucel (hydroxypropylcellulose) (HPC)): 104 % of control | T/C (dose: 200.0 mg/kg/injection, schedule: Q01DX009 (ip), vehicle: Klucel (hydroxypropylcellulose) (HPC)): 100 % of control | T/C (dose: 400.0 mg/kg/injection, schedule: Q01DX009 (ip), vehicle: Klucel (hydroxypropylcellulose) (HPC)): 101 % of control

CCCCCCCCCCC1SCC(=O)N1c1nncs1 (centres undefined)
T/C [4]: 102 % of control | T/C [13]: 97 % of control | T/C [14]: 94 % of control

CCCCCC(CN(C)C)C(=O)/C=C/c1ccc(OC)cc1 (centres undefined)
T/C (dose: 50.0 mg/kg/injection, schedule: Q01DX005 (ip), vehicle: saline): 101 % of control | T/C (dose: 100.0 mg/kg/injection, schedule: Q01DX005 (ip), vehicle: saline): 104 % of control | T/C (dose: 200.0 mg/kg/injection, schedule: Q01DX005 (ip), vehicle: saline): 96 % of control

O=c1[nH]c(CN2CCOCC2)ncc1C1CCCCC1
T/C [8]: 97 % of control | T/C [9]: 100 % of control | T/C [11]: 95 % of control

CCc1ccc(/C=C/c2ccc(O)c3ncccc23)[n+](C)c1
T/C (dose: 4.0 mg/kg/injection, schedule: Q04DX003 (ip), vehicle: saline): 100 % of control | T/C (dose: 8.0 mg/kg/injection, schedule: Q04DX003 (ip), vehicle: saline): 104 % of control | T/C (dose: 16.0 mg/kg/injection, schedule: Q04DX003 (ip), vehicle: saline): 118 % of control

N#Cc1cnn(C(N)=O)c1N
T/C [9]: 110 % of control | T/C [10]: 100 % of control | T/C [11]: 110 % of control | T/C [12]: 100 % of control | T/C (dose: 400.0 mg/kg/injection, schedule: Q01DX009 (ip), vehicle: saline with Tween-80): 100 % of control | T/C (dose: 400.0 mg/kg/injection, schedule: Q04DX003 (ip), vehicle: saline with Tween-80): 100 % of control
